Several values for one entry are separate records, joined by “and”; a condition that tells them apart may be missing. Identical values can stand only once.

Broadly, the IC50 is the concentration at which inhibition is half-maximal. Higher therefore signals lower potency.

The test deals with Cyclin-dependent kinase 2/cyclin E (Homo sapiens, UniProt P24941). The experiment in a line: Inhibitory concentration against cyclin dependent kinase-2 (CDK2)/Cyclin E. The class given is protein-complex assay.
`COc1ccc(CNc2nc(N3CCCC3)nc3c2ncn3C(C)C)cc1` yielded an IC50 of 5000 nM.

Regarding `CCCCCCCC/C=C\CCCCCCCCn1cnc2c(NCc3ccc(OC)cc3)nc(N(CCO)CCO)nc21`, the midpoint of inhibition, the IC50, lay at 3000 nM.

Regarding `O=C1c2ccccc2C(=O)N1CCNc1nc(Cl)nc2nc[nH]c12`, the IC50 was > 5000 nM.

In the case of `COc1ccc(CNc2nc(NCCc3c[nH]c4ccccc34)nc3c2ncn3C(C)C)cc1`, the IC50 was determined as 2000 nM.

In turn, `COc1ccc(CNc2nc(NC(C)(O)CO)nc3c2ncn3C(C)C)cc1` (configuration not stated) displayed an IC50 of 500 nM.

Consider `CC(C)n1cnc2c(Nc3cccc4cccnc34)nc(N(CCO)CCO)nc21`, for which the IC50 is > 5000 nM.

Compound `CC(C)n1cnc2c(NCc3ccc(-c4ccccc4)cc3)nc(NCC(O)CO)nc21` (configuration not stated) had an IC50 of 600 nM.

In the case of `Cn1cnc2c(NC3CCN(Cc4ccccc4)CC3)nc(Cl)nc21`, the IC50 is > 5000 nM.

As to `CC(O)Nc1nc(NCc2ccc(-c3ccccc3)cc2)c2ncn(C(C)C)c2n1` (configuration not stated), the IC50 came out at 3000 nM.

For the compound `Cn1cnc2c(NC(C)(C)CO)nc(Cl)nc21`, the IC50 was > 5000 nM.

Take `Cn1cnc2c(NCCCCCCO)nc(Cl)nc21`: the IC50 is > 5000 nM.

On to `N#CCCCNc1nc(Cl)nc2nc[nH]c12`, for which the IC50 was > 5000 nM.

For `CC(C)n1cnc2c(NCc3ccc(C4=CC(=S)CC=C4)cc3)nc(N(CCO)CCO)nc21`, the IC50 was > 5000 nM.

`COc1ccc(CNc2nc(N(CCO)CCO)nc3c2ncn3Cc2ccc3ccccc3c2)cc1` came in with an IC50 of 5000 nM.

`Cn1cnc2c(NC3CCCC3)nc(Cl)nc21`: the IC50 is > 5000 nM.

In the case of `COc1ccc(CNc2nc(C3CC[C@@H](Cc4ccccc4N)N3)nc3c2ncn3C(C)C)cc1` (some centres not stated), the IC50 is > 5000 nM.

Turning to `COc1ccc(CNc2nc(N(CCO)Cc3ccccc3)nc3c2ncn3C(C)C)cc1`, the IC50 was 1000 nM.

Regarding `CN(c1ccncc1)c1nc(Cl)nc2c1ncn2C1CCCC1`, the 50% inhibitory concentration (IC50) is > 5000 nM.

For `COc1ccc(CNc2nc(N(C)CC(O)c3ccc(O)c(O)c3)nc3c2ncn3C(C)C)cc1` (configuration not stated), half-maximal inhibition (IC50) was put at 3000 nM.

Regarding `CC(C)n1cnc2c(NCCCc3ccccc3)nc(N(CCO)CCO)nc21`, the IC50 was > 5000 nM.

Turning to `CCC(C)Cn1cnc2c(NCc3ccc(OC)cc3)nc(N(CCO)CCO)nc21` (configuration not stated), the IC50 was determined as 2000 nM.

In turn, `FC(F)(F)n1cnc2c(NCc3ccc(Cl)cc3)nc(Cl)nc21` came in with an IC50 of 1000 nM.

For `CC(C)n1cnc2c(N(C)C3CC3)nc(N(CCO)CCO)nc21`, the IC50 was found to be 2000 nM.

Compound `CC(C)n1cnc2c(Nc3ccc(Br)cc3)nc(Nc3ccc(Br)cc3)nc21` showed an IC50 of 5000 nM.

Turning to `CN(Cc1ccc(C(=O)O)cc1)c1[nH]c(Cl)nc2ncnc1-2`, the IC50 was > 5000 nM.

In turn, `CC(C)n1cnc2c(NCc3ccc(Br)cc3)nc(N(CCO)CCO)nc21` registered an IC50 of 2000 nM.

For the compound `CC(C)n1cnc2c(Nc3cnc4ccccc4c3)nc(N(CCO)CCO)nc21`, the half-inhibitory concentration (IC50) came to 2000 nM.

As for `COc1ccc(CNc2nc(Cl)nc3c2ncn3C)cc1`, the IC50 was 4000 nM and 700 nM.

For `COc1ccc(CNc2nc(N(C)CC(O)c3ccccc3)nc3c2ncn3C(C)C)cc1` (configuration not stated), the IC50 was > 5000 nM.

`Clc1nc(NCc2ccccc2)c2[nH]cnc2n1`: the IC50 was > 5000 nM.

In the case of `COc1ccc(CNc2nc(Cl)nc3c2ncn3Cc2ccc(-c3ccccc3)cc2)cc1`, the IC50 is > 5000 nM.

For the compound `CC(C)n1cnc2c(Nc3nc4ccccc4s3)nc(Cl)nc21`, the IC50 is > 5000 nM.

Consider `Cn1cnc2c(NCc3ccncc3)nc(Cl)nc21`, for which the IC50 is > 5000 nM.

For the compound `Cn1cnc2c(NCCc3ccccc3)nc(Cl)nc21`, the IC50 is > 5000 nM.

Consider `ClCCCCNc1[nH]c(Cl)nc2ncnc1-2`, for which the IC50 is > 5000 nM.

In the case of `CCCCc1ccc(CNc2nc(N(CCO)CCO)nc3c2ncn3C(C)C)cc1`, the midpoint of inhibition, the IC50, lay at 2000 nM.

As to `CC(C)n1cnc2c(NC3Cc4ccccc4C3)nc(N(CCO)CCO)nc21`, the IC50 was > 5000 nM.

Compound `COc1ccc(CNc2nc(NCC(O)CO)nc3c2ncn3C(C)C)cc1` (configuration not stated) came in with an IC50 of 2000 nM.

Consider `COc1ccc(CNc2nc(N(CCO)CCO)nc3c2ncn3CC(O)CO)cc1` (configuration not stated), for which the IC50 is > 5000 nM.

For `CC(C)n1cnc2c(NCc3ccc(-c4ccccc4)cc3)nc(NCc3ccco3)nc21`, the IC50 was > 5000 nM.

Take `C=CCN(CC=C)c1nc(NCc2ccc(OC)cc2)c2ncn(C(C)C)c2n1`: the IC50 was > 5000 nM.

`COc1ccc(CNc2nc(N3CCC(O)CC3)nc3c2ncn3C(C)C)cc1` showed an IC50 of 2000 nM.

Take `COc1ccc(CNc2nc(NC3CCCCC3O)nc3c2ncn3C(C)C)cc1` (configuration not stated): the 50% inhibitory concentration (IC50) worked out at 1000 nM.

`CC(C)n1cnc2c(Nc3ccccc3)nc(N(CCO)CCO)nc21`: the IC50 amounted to 2000 nM.

Take `COCCNc1nc(Cl)nc2c1ncn2C`: the IC50 was > 5000 nM.

`COc1ccc(CNc2nc(N(CCO)CCO)nc3c2ncn3Cc2ccc([N+](=O)[O-])cc2)cc1` gave an IC50 of 2000 nM.

`COc1ccc(CNc2nc(N3CCC(O)C3)nc3c2ncn3C(C)C)cc1` (configuration not stated): the IC50 is > 5000 nM.

Turning to `COc1ccc(CNc2nc(NCCN)nc3c2ncn3C(C)C)cc1`, the IC50 is > 5000 nM.

In turn, `CC(C)n1cnc2c(Nc3ccc(Br)cc3)nc(N(CCO)CCO)nc21` yielded an IC50 of 1000 nM.

The compound `COc1ccc(CNc2nc(N(CCO)CCO)nc3c2ncn3CC(C)C)cc1` came in with an IC50 of 2000 nM.

On to `COCCCNc1nc(Cl)nc2c1ncn2C`, for which the IC50 is > 5000 nM.

In turn, `COCCN(CCOC)c1nc(NCc2ccc(-c3ccccc3)cc2)c2ncn(C(C)C)c2n1` came in with an IC50 of 5000 nM.

For the compound `CCCn1cnc2c(NCCCCCCO)nc(Cl)nc21`, the IC50 was > 5000 nM.

For the compound `COc1ccc(CNc2nc(NCCO)nc3c2ncn3C(C)C)cc1`, the IC50 stood at 1500 nM.

`CC(C)n1cnc2c(Nc3ccc(-c4ccccc4)cc3)nc(N(CCO)CCO)nc21` returned an IC50 of 600 nM.

In the case of `CC(C)n1cnc2c(N(C)Cc3ccc(-c4ccccc4)cc3)nc(Cl)nc21`, the IC50 is > 5000 nM.

Regarding `CC(C)n1cnc2c(NCc3ccc(-c4ccccc4)cc3)nc(N(CCO)CCO)nc21`, it took 1000 nM to reach half-maximal inhibition (IC50).

Consider `COc1ccc(CNc2nc(N(CCO)CCO)nc3c2ncn3C2CCCC2)cc1`, for which it took 2000 nM to reach half-maximal inhibition (IC50).

`CC(C)n1cnc2c(NCc3ccc(-c4cccs4)cc3)nc(N(CCO)CCO)nc21` returned an IC50 of 600 nM.

As for `COc1ccc(CNc2nc(N3CCCCC3CO)nc3c2ncn3C(C)C)cc1` (configuration not stated), the IC50 was 4000 nM.

In turn, `COc1ccc(CNc2nc(NC(O)CN)nc3c2ncn3C(C)C)cc1` (configuration not stated) displayed an IC50 of 1000 nM.

For `CCn1cnc2c(NCCc3ccccc3)nc(Cl)nc21`, the IC50 is > 5000 nM.

For `Cn1cnc2c(NCc3cccnc3)nc(Cl)nc21`, the IC50 is > 5000 nM.

Compound `COc1ccc(CNc2nc(N(Cc3cccnc3)CC(C)C#N)nc3c2ncn3C(C)C)cc1` (configuration not stated) returned an IC50 of 1000 nM.

For the compound `CC(C)Cn1cnc2c(N(C)c3cccnc3)nc(Cl)nc21`, the IC50 is > 5000 nM.

Take `Cn1cnc2c(Nc3nc4ccccc4s3)nc(Cl)nc21`: the IC50 was > 5000 nM.

For `CC(C)n1cnc2c(NCc3ccc4c(c3)OCO4)nc(N(CCO)CCO)nc21`, 800 nM corresponded to half-maximal inhibition (IC50).

For `COc1ccc(CNc2nc(N(CCO)CCO)nc3c2ncn3Cc2cccc([N+](=O)[O-])c2)cc1`, 2000 nM corresponded to half-maximal inhibition (IC50).

With `COc1ccc(CNc2nc(N(CCO)CCO)nc3c2ncn3Cc2ccccc2-c2ccccc2)cc1`, the IC50 was > 5000 nM.

As for `COc1ccc(CNc2nc(N(CCO)CCO)nc3c2ncn3CCO)cc1`, the IC50 is 1000 nM.

`COc1ccc(CNc2nc(NCCO)nc3c2ncn3C)cc1` had an IC50 of 2500 nM.

`CC(C)(C)OC(=O)Cn1cnc2c(NCc3ccc(-c4ccccc4)cc3)nc(N(CCO)CCO)nc21` yielded an IC50 of 5000 nM.

For the origin of these results see ChEMBL document CHEMBL1129208, “Synthesis and activity of 2,6,9-trisubstituted purines” (Bioorg Med Chem Lett, 1997).
